According to US20070161592A1, “Method of treating fear” (priority 2005, published 2007):

What was measured:
[1] = system: pyramidal neurons in layer II/III of ACC slices; test: LTP induced by pairing training, whole-cell patch-clamp recordings in ACC slices; type: cell-based, mouse
Experimental: Experiments were performed in a recording chamber on the stage of an Axioskop 2FS microscope with infrared DIC optics for visualizing whole-cell patch clamp recordings. EPSCs were recorded from layer II-III neurons using an Axon 200B amplifier (Axon Instruments, CA) and stimulations were delivered using a bipolar tungsten stimulating electrode placed in layer V of the ACC. In hippocampal slices, EPSCs were evoked by stimulating the Schaffer collateral-commissural pathway. EPSCs were induced by repetitive stimulations at 0.02 Hz and neurons were voltage clamped at −70 mV. […] The first protocol involved paired presynaptic 80 pulses at 2 Hz with postsynaptic depolarization at +30 mV (referred to as pairing training). The second involved paired 3 presynaptic stimuli that caused 3 EPSPs (10 ms ahead) with 3 postsynaptic APs at 30 Hz, paired 15 times every 5 s (named as EPSPs-APs protocol). The third involved theta-burst stimulation (5 trains of burst with 4 pulses at 100 Hz, at 200 ms interval; repeated 4 times at intervals of 10 s; named as TBS). The NMDAR-mediated component of EPSCs was pharmacologically isolated in Mg^2+-free ACSF containing: CNQX (20 μM), glycine (1 μM) and picrotoxin (100 μM). […] Neurons were voltage clamped at −60 mV and NMDARs-mediated EPSCs were evoked at 0.05 Hz. Picrotoxin (100 μM) was always present to block GABAA receptor-mediated inhibitory synaptic currents. The access resistance was 15-30 MΩ and was monitored throughout the experiment. […] Results are expressed as means±SEM. Statistical comparisons were performed using the Student t-test.
Whole-cell patch-clamp recordings were conducted in visually identified pyramidal neurons in layer II/III of ACC slices. Pyramidal neurons were identified by injecting depolarized currents into neurons to induce action potentials. […] Pyramidal neurons were also identified based on the pyramid shape of their somata by putting Lucifer yellow into the intracellular solution (FIG. 1A).

NR1/NR2A = settings: cited from earlier work
adult ACC neurons [2] = test: LTP induced by theta-burst stimulation (TBS) in ACC slices; type: cell-based, mouse; settings: 0.4 μM
Experimental: (§1) Coronal brain slices ([…]) from 6-8-week-old C57BL/6 mice, containing ACC or hippocampus, were prepared using standard methods (Wei et al., 2001). Slices were transferred to a submerged recovery chamber containing oxygenated (95% O2 and 5% CO2) artificial cerebrospinal fluid (ACSF) (in mM: 124 NaCl, 4.4 KCl, 2 CaCl2, 1 MgSO4, 25 NaHCO3, 1 NaH2PO4, 10 glucose) at room temperature for at least 1 h.
(§2) Experiments were performed in a recording chamber on the stage of an Axioskop 2FS microscope with infrared DIC optics for visualizing whole-cell patch clamp recordings. EPSCs were recorded from layer II-III neurons using an Axon 200B amplifier (Axon Instruments, CA) and stimulations were delivered using a bipolar tungsten stimulating electrode placed in layer V of the ACC. In hippocampal slices, EPSCs were evoked by stimulating the Schaffer collateral-commissural pathway. EPSCs were induced by repetitive stimulations at 0.02 Hz and neurons were voltage clamped at −70 mV. The recording pipettes (3-5 MΩ) were filled with solution containing (mM) 145 K-gluconate, 5 NaCl, 1 MgCl2, 0.2 EGTA, 10 HEPES, 2 Mg-ATP, and 0.1 Na3-GTP (adjusted to pH 7.2 with KOH). After obtaining stable EPSCs for 10 min, three kinds of LTP induction paradigms were used within 12 min after establishing the whole-cell configuration to prevent wash out effect on LTP induction (Tsvetkov et al., 2002). The first protocol involved paired presynaptic 80 pulses at 2 Hz with postsynaptic depolarization at +30 mV (referred to as pairing training). The second involved paired 3 presynaptic stimuli that caused 3 EPSPs (10 ms ahead) with 3 postsynaptic APs at 30 Hz, paired 15 times every 5 s (named as EPSPs-APs protocol). The third involved theta-burst stimulation (5 trains of burst with 4 pulses at 100 Hz, at 200 ms interval; repeated 4 times at intervals of 10 s; named as TBS). The NMDAR-mediated component of EPSCs was pharmacologically isolated in Mg^2+-free ACSF containing: CNQX (20 μM), glycine (1 μM) and picrotoxin (100 μM). The patch electrodes contained (in mM) 102 cesium gluconate, 5 TEA-chloride, 3.7 NaCl, 11 BAPTA, 0.2 EGTA, 20 HEPES, 2 MgATP, 0.3 NaGTP, and 5 QX-314 chloride (adjusted to pH 7.2 with CsOH). Neurons were voltage clamped at −60 mV and NMDARs-mediated EPSCs were evoked at 0.05 Hz. Picrotoxin (100 μM) was always present to block GABAA receptor-mediated inhibitory synaptic currents. The access resistance was 15-30 MΩ and was monitored throughout the experiment. Data were discarded if access resistance changed by more than 15% during an experiment. Results are expressed as means±SEM. Statistical comparisons were performed using the Student t-test. […]

adult ACC neurons [3] = test: LTP induced by EPSPs-APs protocol in ACC slices; type: cell-based, mouse; settings: 0.4 μM
Experimental: as §1, §2

NR1/NR2B = settings: cited from earlier work
[4] = system: NMDAR-mediated currents in the ACC; test: NMDAR-mediated EPSCs in the ACC; type: cell-based, mouse
Experimental: as §1
(§3) Experiments were performed in a recording chamber on the stage of an Axioskop 2FS microscope with infrared DIC optics for visualizing whole-cell patch clamp recordings. EPSCs were recorded from layer II-III neurons using an Axon 200B amplifier (Axon Instruments, CA) and stimulations were delivered using a bipolar tungsten stimulating electrode placed in layer V of the ACC. In hippocampal slices, EPSCs were evoked by stimulating the Schaffer collateral-commissural pathway. EPSCs were induced by repetitive stimulations at 0.02 Hz and neurons were voltage clamped at −70 mV. The recording pipettes (3-5 MΩ) were filled with solution containing (mM) 145 K-gluconate, 5 NaCl, 1 MgCl2, 0.2 EGTA, 10 HEPES, 2 Mg-ATP, and 0.1 Na3-GTP (adjusted to pH 7.2 with KOH). After obtaining stable EPSCs for 10 min, three kinds of LTP induction paradigms were used within 12 min after establishing the whole-cell configuration to prevent wash out effect on LTP induction (Tsvetkov et al., 2002). The first protocol involved paired presynaptic 80 pulses at 2 Hz with postsynaptic depolarization at +30 mV (referred to as pairing training). The second involved paired 3 presynaptic stimuli that caused 3 EPSPs (10 ms ahead) with 3 postsynaptic APs at 30 Hz, paired 15 times every 5 s (named as EPSPs-APs protocol). The third involved theta-burst stimulation (5 trains of burst with 4 pulses at 100 Hz, at 200 ms interval; repeated 4 times at intervals of 10 s; named as TBS). The NMDAR-mediated component of EPSCs was pharmacologically isolated in Mg^2+-free ACSF containing: CNQX (20 μM), glycine (1 μM) and picrotoxin (100 μM). The patch electrodes contained (in mM) 102 cesium gluconate, 5 TEA-chloride, 3.7 NaCl, 11 BAPTA, 0.2 EGTA, 20 HEPES, 2 MgATP, 0.3 NaGTP, and 5 QX-314 chloride (adjusted to pH 7.2 with CsOH). Neurons were voltage clamped at −60 mV and NMDARs-mediated EPSCs were evoked at 0.05 Hz. Picrotoxin (100 μM) was always present to block GABAA receptor-mediated inhibitory synaptic currents. The access resistance was 15-30 MΩ and was monitored throughout the experiment. Data were discarded if access resistance changed by more than 15% during an experiment. Results are expressed as means±SEM. Statistical comparisons were performed using the Student t-test.
(§4) One possible mechanism is that NR2B-containing receptors may contribute more to total NMDA currents in ACC synapses than in hippocampal synapses. […] Application of 0.1 μM or 0.4 μM NVP-AAM077 depressed total NMDAR-mediated currents by 59.0±4.3% (n=5) and 63.2±1.7% (n=6) in the ACC respectively (FIG. 5). On the other hand, application of 0.3 μM or 3 μM Ro25-6981 attenuated total NMDAR-mediated currents by 18.0±1.9% (n=5) and 18.1±3.4% (n=7) in the ACC respectively, showing that 0.3 μM Ro25-6981 was sufficient to block the NR2B-mediated currents (FIG. 5). This experiment was repeated in hippocampal CA1 neurons. […] However, unlike in the ACC, application of 0.3 μM Ro25-6981 alone potentiated, rather than blocked, total NMDAR-mediated currents by 51.3±16.4% in the hippocampus (FIG. 5).
The relative percentages of NR2A- and NR2B-mediated currents were determined by applying specific antagonists, NVP-AAM077 (0.4 μM) and Ro25-6981 (0.3 μM). The concentrations used here were based on the results from FIG. 5 and a recent study performed in the hippocampus (Liu et al., 2004). Application of NVP-AAMO77 depressed total NMDAR-mediated currents by 63.2±1.7% and the addition of Ro25-6981 to the same neuron further reduced currents by 13.7±1.4% (n=6) in the ACC (FIG. 6). […]

[5] = system: NMDAR-mediated currents in the hippocampus; test: NMDAR-mediated EPSCs in hippocampal CA1 neurons; type: cell-based, mouse; settings: for depression of total NMDAR-mediated currents: hippocampal CA1 neurons
Experimental: as §1, §3, §4
The same experiment was repeated in the hippocampus.

NMDAR-mediated signaling = settings: intra-hippocampal injections; cited from earlier work
[6] = FIG. 1E/F, BAPTA in the intracellular solution

Structure (SMILES): NC(CCCP(=O)(O)O)C(=O)O (centres unmarked) [AP-5]
- synaptic responses after pairing training (LTP), % of baseline ([1]; AP-5 50 μM): 97.8±5.7%
- effect on LTP induced by pairing training [1, 6]: completely blocked

Structure (SMILES): C[C@H](NC(c1cccc2[nH]c(=O)c(=O)[nH]c12)P(=O)(O)O)c1ccc(Br)cc1 (some centres unmarked) [NVP-AAM077]
- synaptic responses after pairing training (LTP), % of baseline ([1]; 0.1 μM): 134.9±6.9%
- effect on LTP induced by pairing training ([1]; 0.1 μM, FIG. 3): partially depressed
- synaptic responses after pairing training (LTP), % of baseline ([1]; 0.4 μM): 131.6±11.9%
- effect on LTP induced by pairing training ([1]; 0.4 μM, FIG. 3): partially depressed
- IC50 (NR1/NR2A): 14 nM
- LTP after TBS, % of baseline (adult ACC neurons [2]): 97.0±13.4%
- effect on LTP induced by TBS (adult ACC neurons [2]; FIG. 4F): blocked
- potentiation after EPSPs-APs protocol, % of baseline (adult ACC neurons [3]): 102.0±11.5%
- effect on LTP induced by EPSPs-APs protocol (adult ACC neurons [3]; FIG. 4C): blocked
- IC50 (NR1/NR2B): 1800 nM
- depression of total NMDAR-mediated currents ([4]; 0.1 μM): 59.0±4.3%
- depression of total NMDAR-mediated currents ([4]; 0.4 μM NVP-AAM077 added after first applying 0.3 μM Ro25-6981): 64.2±3.0%
- depression of total NMDAR-mediated currents ([4]; 0.4 μM, applied alone or first): 63.2±1.7%
- effect on total NMDAR-mediated currents ([4]; bath application of different doses, FIG. 5): depressed
- depression of total NMDAR-mediated currents ([5]; 0.1 μM): 54.4±3.2%
- depression of total NMDAR-mediated currents ([5]; 0.4 μM): 73.1±1.7%
- effect on total NMDAR-mediated currents ([5]; hippocampus, bath application, FIG. 5): depressed

Structure (SMILES): C[C@]12N[C@H](Cc3ccccc31)c1ccccc12 [MK-801]
- contextual freezing (NMDAR-mediated signaling): reduced contextual freezing

Structure (SMILES): CC(C(O)c1ccc(O)cc1)N1CCC(Cc2ccccc2)CC1 (centres unmarked) [ifenprodil]
- synaptic responses after pairing training (LTP), % of baseline ([1]; 3 μM): 128.1±7.4%
- effect on LTP induced by pairing training ([1]; 3 μM, FIG. 3): partially depressed
- IC50 (NR1/NR2A): 146000 nM
- IC50 (NR1/NR2B): 340 nM

Structure (SMILES): O=C(O)CN(CC(=O)O)c1ccccc1OCCOc1ccccc1N(CC(=O)O)CC(=O)O [BAPTA]
- synaptic responses after pairing training (LTP), % of baseline ([1]; 11 mM BAPTA in the pipette solution): 106.1±10.3%
- effect on LTP induced by pairing training [1, 6]: completely blocked
